In patent EP0472573B1, “HERBICIDE RESISTANT MAIZE” (ZENECA LIMITED, priority 1989, dated 1990):
Like-named read-outs stand apart in the source and are kept apart here.

Experiments:
Assay type in all cases: biochemical, Zea mays
[1] = biological target: ALS enzyme extracted from Mutant 9 (heterozygous); assay: ALS enzyme assay, heterozygous Mutant 9; conditions: for IC50: ALS of heterozygous Mutant 9, read-out: ID50% (the source's name); for resistance group, Enzyme Assay: Mutant 9, groups Strong, Intermediate, Weak, Zero; for Fold Increase: fold increase in resistance vs wild type, heterozygous Mutant 9, 30 min
Protocol: (§1) Seeds of generation M₁BC₁ M₁BC₂ of the nine mutants were sprayed pre-emergence with the herbicide imazethapyr (PURSUIT) (Trade Mark) at a rate of 250 g/ha and grown in a growth chamber (16 hour day, 27°C; 8 hour night, 17°C). Plants were harvested after 11 days.
(§2) Four grams of leaf material were harvested from just above the first leaf axis and ground in a mortar and pestle in 20ml of a solution containing 40mM Tricine (Trade Mark), 10mM EDTA, 5mM pyruvate, 80 »M flavin adenine dinucleotide (FAD), 1mM dithiothreitol (DTT), pH 8, plus 0.8g Polyclar AT. The homogenate was pressed through four layers of muslin and centrifuged at 30,000g for 20 minutes.
(§3) The supernatant was brought to 65% saturation with ammonium sulphate, left to precipitate for 30 minutes and then centrifuged at 30.000g for 20 minutes. The pellet was resuspended in 2.5ml of 40mM Tricine, 10mM EDTA, 5mM pyruvate, 80»M FAD, 25% (v/v) glycerol, 1mM DTT, pH 8, and desalted into 3.5ml of 40mM Tricine, 10mM EDTA, 25% (v/v) glycerol, 1mM DTT, pH 8.
(§4) One hundred microlitres of the enzyme extract was used for each assay. Final reagent concentrations were: 120mM Tricine, 50mM pyruvate, 10mM MgCl₂, […], 93»M thiamine pyrophosphate (TPP), pH 8, in the presence or absence of a herbicide of interest, in a volume of 750 »l. Incubations were carried out at 37°C for 30 minutes. Reactions were stopped with 250»l of 1.84M sulphuric acid, and decarboxylation of the acetolactate carried out at 37°C for 75 minutes, or at 60°C for 30 minutes. Assay blanks had sulphuric acid added prior to the enzyme extract. To the samples and blanks 650»l of α-naphthol in 2.73M NaOH/0.16%(w/v) creatine were added followed by incubation at 37°C for 30 minutes. After centrifugation at 30,000g the optical density of the supernatant was read at 540nm.
(§5) The assay procedure described was carried out on ALS enzyme extracted from each of the nine mutants for the following herbicides: imazethapyr (PURSUIT) imazapyr (ARSENAL) imazaquin (SCEPTER) chlorsulfuron (GLEAN) chlorimuron (CLASSIC) […] (HARMONY) The enzyme activity graphs are given as Figures 3 to 8. In addition, homozygous lines of mutants 1 and 2 which were selected from generation M₁BC₁S₂, were also tested against the same group of herbicides and against representatives of the triazolopyrimidines and phenoxypyrimidines. The chemical structures of these herbicides are shown in Figure 2 of the accompanying drawings.
(§6) From the enzyme assay data it is possible to derive, as a measure of the degree of inhibition the factor ID50% for each mutant and for each herbicide. This factor is indicative of the herbicide concentration which gives 50% inhibition of the ALS activity in comparison with the wild-type control. It is also possible to derive the fold increase in resistance.

[2] = biological target: ALS enzyme extracted from Mutant 5 (heterozygous); assay: ALS enzyme assay, heterozygous Mutant 5; conditions: for IC50: ALS of heterozygous Mutant 5, read-out: ID50% (the source's name); for resistance group, Enzyme Assay: Mutant 5, groups Strong, Intermediate, Weak, Zero; for Fold Increase: fold increase in resistance vs wild type, heterozygous Mutant 5, 30 min
Protocol: as §1, §2, §3, §4, §5, §6

[3] = biological target: ALS enzyme extracted from Mutant 10 (heterozygous); assay: ALS enzyme assay, heterozygous Mutant 10; conditions: for IC50: ALS of heterozygous Mutant 10, read-out: ID50% (the source's name); for resistance group, Enzyme Assay: Mutant 10, groups Strong, Intermediate, Weak, Zero; for Fold Increase: fold increase in resistance vs wild type, heterozygous Mutant 10, 30 min
Protocol: as §1, §2, §3, §4, §5, §6

[4] = biological target: ALS extracted from leaves of MUTANT 1 (homozygous); assay: ALS enzyme assay, homozygous Mutant 1; conditions: for IC50: ALS of homozygous Mutant 1, read-out: ID50% Mutant; for Fold Increase: fold increase in resistance vs wild type, homozygous Mutant 1
Protocol: as §2, §3, §4, §5, §6

[5] = biological target: ALS extracted from leaves of MUTANT 2 (homozygous); assay: ALS enzyme assay, homozygous Mutant 2; conditions: for IC50: ALS of homozygous Mutant 2, read-out: ID50% Mutant; for Fold Increase: fold increase in resistance vs wild type, homozygous Mutant 2, 30 min
Protocol: as §2, §3, §4, §5, §6

[6] = biological target: ALS enzyme extracted from Mutant 1 (heterozygous); assay: ALS enzyme assay, heterozygous Mutant 1; conditions: for IC50: ALS of heterozygous Mutant 1, read-out: ID50% (the source's name); for resistance group, Enzyme Assay: Mutant 1, groups Strong, Intermediate, Weak, Zero; for Fold Increase: fold increase in resistance vs wild type, heterozygous Mutant 1, 30 min
Protocol: as §1, §2, §3, §4, §5, §6

[7] = biological target: ALS enzyme extracted from Mutant 6 (heterozygous); assay: ALS enzyme assay, heterozygous Mutant 6; conditions: for IC50: ALS of heterozygous Mutant 6, read-out: ID50% (the source's name); for resistance group, Enzyme Assay: Mutant 6, groups Strong, Intermediate, Weak, Zero; for Fold Increase: fold increase in resistance vs wild type, heterozygous Mutant 6, 30 min
Protocol: as §1, §2, §3, §4, §5, §6

[8] = biological target: ALS enzyme extracted from Mutant 3 (heterozygous); assay: ALS enzyme assay, heterozygous Mutant 3; conditions: for IC50: ALS of heterozygous Mutant 3, read-out: ID50% (the source's name); for resistance group, Enzyme Assay: Mutant 3, groups Strong, Intermediate, Weak, Zero; for Fold Increase: fold increase in resistance vs wild type, heterozygous Mutant 3, 30 min
Protocol: as §1, §2, §3, §4, §5, §6

[9] = biological target: ALS enzyme extracted from Mutant 2 (heterozygous); assay: ALS enzyme assay, heterozygous Mutant 2; conditions: for IC50: ALS of heterozygous Mutant 2, read-out: ID50% (the source's name); for resistance group, Enzyme Assay: Mutant 2, groups Strong, Intermediate, Weak, Zero; for Fold Increase: fold increase in resistance vs wild type, heterozygous Mutant 2, 30 min
Protocol: as §1, §2, §3, §4, §5, §6

[10] = biological target: ALS enzyme extracted from Mutant 7 (heterozygous); assay: ALS enzyme assay, heterozygous Mutant 7; conditions: for IC50: ALS of heterozygous Mutant 7, read-out: ID50% (the source's name); for resistance group, Enzyme Assay: Mutant 7, groups Strong, Intermediate, Weak, Zero; for Fold Increase: fold increase in resistance vs wild type, heterozygous Mutant 7, 30 min
Protocol: as §1, §2, §3, §4, §5, §6

[11] = biological target: ALS (acetolactate synthase), Wild type; assay: ALS enzyme assay, wild-type control; conditions: read-out: ID50% (the source's name)
Protocol: as §1, §2, §3, §4, §5, §6

[12] = biological target: ALS enzyme extracted from Mutant 8 (heterozygous); assay: ALS enzyme assay, heterozygous Mutant 8; conditions: for IC50: ALS of heterozygous Mutant 8, read-out: ID50% (the source's name); for resistance group, Enzyme Assay: Mutant 8, groups Strong, Intermediate, Weak, Zero; for Fold Increase: fold increase in resistance vs wild type, heterozygous Mutant 8, 30 min
Protocol: as §1, §2, §3, §4, §5, §6

Row | Compound | IC50 [1] [µM] | resistance group, Enzyme Assay [1] | Fold Increase [1] | IC50 [2] [µM] | resistance group, Enzyme Assay [2] | Fold Increase [2] | IC50 [3] [µM] | resistance group, Enzyme Assay [3] | Fold Increase [3] | IC50 [4] [µM] | IC50 [5] [µM] | Fold Increase [5] | IC50 [6] [µM] | resistance group, Enzyme Assay [6] | Fold Increase [6] | IC50 [7] [µM] | resistance group, Enzyme Assay [7] | Fold Increase [7] | IC50 [8] [µM] | resistance group, Enzyme Assay [8] | other results
1 | CC(C)C1(C)N=C(c2ncccc2C(=O)O)NC1=O (stereo not shown) [Imazapyr, imazapyr] | > 1000 | Strong | >333 | 300 | Strong | 100 | 35 | Strong | 12 | > 1000 | 675 | 225 | > 1000 | Strong | >333 | 5 | Intermediate | 2 | 4 | Weak | Fold Increase ([4]; 30 min): >333; Fold Increase [8]: 1; IC50 [9]: 540 µM; resistance group, Enzyme Assay [9]: Strong; Fold Increase [9]: 180; IC50 [10]: 10 µM; resistance group, Enzyme Assay [10]: Intermediate; Fold Increase [10]: 3; IC50 ([11]; herbicide concentration giving 50% inhibition of ALS activity): 3 µM; IC50 [12]: > 1000 µM; resistance group, Enzyme Assay [12]: Strong; Fold Increase [12]: >333
2 | COC(=O)c1sccc1S(=O)(=O)NC(=O)Nc1nc(C)nc(OC)n1 [Thiacarburon, thiacarburon] | 0.045 | Weak | 1 | 0.34 | Intermediate | 8 | 0.39 | Intermediate | 9 | 0.04 | 0.36 | 8.5 | 0.055 | Weak | 1 | 0.045 | Weak | 1 | 0.085 | Weak | Fold Increase [4]: nil; Fold Increase [8]: 2; IC50 [9]: 0.32 µM; resistance group, Enzyme Assay [9]: Intermediate; Fold Increase [9]: 8; IC50 [10]: 0.025 µM; resistance group, Enzyme Assay [10]: Zero; Fold Increase [10]: 1; IC50 [11]: 0.0425 µM; IC50 [12]: 0.04 µM; resistance group, Enzyme Assay [12]: Weak; Fold Increase [12]: 1
